Measured values reported in patent US8962608B2, “Cycloalkylnitrile pyrazole carboxamides as janus kinase inhibitors” (Merck Sharp & Dohme Corp., priority 2011, dated 2015).

Legend:
[1] = molecular target: JAK1 (recombinant purified GST-tagged catalytic domain) (Homo sapiens (Human), UniProt P23458);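 note: biochemical assay with HTRF read-out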
[2] = molecular target: JAK2 (recombinant purified GST-tagged catalytic domain) (Homo sapiens (Human), UniProt O60674);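 note: biochemical JAK kinase assay with HTRF detection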
JAK2 (recombinant purified GST-tagged catalytic domain), sequence (O60674 849-1124): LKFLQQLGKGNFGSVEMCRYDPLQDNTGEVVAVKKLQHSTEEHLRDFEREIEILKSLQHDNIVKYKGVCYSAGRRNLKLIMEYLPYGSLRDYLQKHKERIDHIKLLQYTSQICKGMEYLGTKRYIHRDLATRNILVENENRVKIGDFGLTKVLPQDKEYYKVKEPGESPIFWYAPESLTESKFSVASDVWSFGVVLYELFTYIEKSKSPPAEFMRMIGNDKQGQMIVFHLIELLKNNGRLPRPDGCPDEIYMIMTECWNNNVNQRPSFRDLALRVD

JAK1 (recombinant purified GST-tagged catalytic domain), sequence (P23458 875-1153): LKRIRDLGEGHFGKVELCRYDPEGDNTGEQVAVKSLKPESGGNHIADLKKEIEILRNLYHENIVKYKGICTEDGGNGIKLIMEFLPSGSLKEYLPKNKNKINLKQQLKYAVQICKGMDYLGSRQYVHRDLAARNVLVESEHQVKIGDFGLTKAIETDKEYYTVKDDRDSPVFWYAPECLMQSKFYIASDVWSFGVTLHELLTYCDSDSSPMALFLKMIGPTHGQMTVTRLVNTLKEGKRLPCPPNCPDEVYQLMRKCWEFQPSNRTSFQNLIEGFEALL

IC50 [1]: 305 nM
IC50 [2]: > 1500 nM
SMILES: CN(C)[C@@H]1CC[C@H](C#N)[C@@H](n2cc(C(N)=O)c(Nc3ccc(F)cc3)n2)C1 (mixture of isomers) [Example 6-2, 1-[(1S,2S,5R and 1R,2R,5S)-2-cyano-5-(dimethylamino)cyclohexyl]-3-[(4-fluorophenyl)amino]-1H-pyrazole-4-carboxamide]
